Among the data in patent US20040142979A1, “Heteroarylsulfonylmethyl hydroxamic acids and amides and their use as protease inhibitors” (priority 2002, published 2004) are Ki values, retold here.

Each structure is given as a SMILES string.

Common to all, as to format: biochemical
One assay addresses T1, Human recombinant MMP-14 (Homo sapiens, UniProt P50281).
T1 construct: The catalytic domain enzyme was expressed in E. Coli inclusion bodies; made in house
Kind of assay: In vitro MMP inhibition analysis (fluorogenic peptide substrate), MMP-14. Particulars: human recombinant catalytic domain; 4 μM substrate (A); apparent Ki without substrate correction. The protocol: (§1) Several compounds and salts were analyzed in an in vitro assay to determine their ability to inhibit the MMP cleavage of peptide substrates. Inhibition constant (Ki) were calculated from the assayed compound-MMP interactions.
(§2) Human recombinant MMP-1, MMP-2, MMP-9, MMP-13, and MMP-14 were used in this assay. All enzymes were prepared in Assignee's laboratories following usual laboratory procedures. Protocols for the preparation and use of these enzymes are available in the scientific literature. See, e.g., Enzyme Nomenclature (Academic Press, San Diego, Calif., 1992) (and the citations therein). See also, Freije et al., J. Biol. Chem., 269(24), 16766-16773 (1994).
The MMP-14 full length cDNA was provided by Dr. Gregory Goldberg of Washington University (St. Louis, Mo.). The catalytic domain enzyme was expressed in E. Coli inclusion bodies, solubilized in urea, purified on a preparative […] reverse phase HPLC column, and then refolded in the presence of zinc acetate and purified for use.
(§3) All MMPs were activated using 4-aminophenylmercuric acetate (“APMA”, Sigma Chemical, St. Louis, Mo.) or trypsin. MMP-9 also was activated using human recombinant MMP-3 (purified in Assignee's laboratory following standard cloning and purification techniques).
(§4) The following fluorogenic, methoxycoumarin-containing polypeptide substrate (A) was used in the MMP inhibition assays:
(§5) MCA-ArgProLeuGlyLeuDpaAlaArgGluArgNH2 (A)
(§6) “MCA” is 7-methoxycoumarin-4-yl acetyl. Substrate (A) was prepared Assignee's laboratory. In the absence of MMP inhibitory activity, the substrate is cleaved at the Gly-Leu peptide bond. This cleavage separates the highly fluorogenic peptide from the 2,4-dinitrophenyl quencher, thus resulting in increase of fluorescent intensity.
(§7) The stock solutions of the assayed compounds and salts were prepared in 1% dimethyl sulfoxide (DMSO). These stock solutions were diluted in Buffer A (100 mM Tris-HCl, 100 mM NaCl, 10 mM CaCl2, 0.05% polyoxyethylene 23 lauryl ether, pH 7.5) to obtain solutions with different compound concentrations, i.e., assay solutions with different concentrations of the assayed MMP inhibitory compound. The experiment controls contained the same amount of Buffer A/DMSO as the assayed sample, but contained none of the tested compound or salt.
(§8) The assays from which the Ki determinations were made were performed as follows. The assayed compound samples were incubated in separate wells of untreated white polystyrene plates (Nunc Nalgene International, Rochester, N.Y.), and analyzed on a Tecan SpectraFlour Plus plate reader. The excitation wavelength was 330 nm, and the emission wavelength -420 nm. All samples (assayed compounds and controls) were incubated in separate plate wells at room temperature for 1 hr in the presence of 4 μM of MMP substrate (A). In the absence of MMP inhibitory activity, substrate (A) was cleaved at the Gly-Leu bond resulting in an increase of relative fluorescence. Inhibition was observed as a reduced rate of this increase in relative fluorescence. […] This protocol is a modification of method by Knight et al., FEBS Lett., 296(3), 263-266 (1992). Apparent inhibitory constants were determined by non-linear regression of reaction velocity as a function of inhibitor and enzyme concentration using Morrison's equation, as described by Kuzmic, P., et al., Anal. Biochem., 286(1):45-50 (2000). Modifications were made in the non-linear regression method to allow a common control reaction rate and effective enzyme concentration to be shared between all dose-response relationships on a given assay plate. Since the substrate concentration was chosen to be at or below the Km, the apparent Ki's from this analysis were reported as Ki's without correction for the influence of substrate.
(§9) The above protocols were used to determine MMP inhibition Ki constants for the compounds in Examples 1, 2, and 4-42 above. All Ki values in Table 3 are given in nM units.

In another assay the target is T2, Human recombinant MMP-2 (Homo sapiens, UniProt P08253).
T2 construct: made in house; host or cells: MMP-2-transfected p2AHT2 cells
T2 sequence (P08253 110-660): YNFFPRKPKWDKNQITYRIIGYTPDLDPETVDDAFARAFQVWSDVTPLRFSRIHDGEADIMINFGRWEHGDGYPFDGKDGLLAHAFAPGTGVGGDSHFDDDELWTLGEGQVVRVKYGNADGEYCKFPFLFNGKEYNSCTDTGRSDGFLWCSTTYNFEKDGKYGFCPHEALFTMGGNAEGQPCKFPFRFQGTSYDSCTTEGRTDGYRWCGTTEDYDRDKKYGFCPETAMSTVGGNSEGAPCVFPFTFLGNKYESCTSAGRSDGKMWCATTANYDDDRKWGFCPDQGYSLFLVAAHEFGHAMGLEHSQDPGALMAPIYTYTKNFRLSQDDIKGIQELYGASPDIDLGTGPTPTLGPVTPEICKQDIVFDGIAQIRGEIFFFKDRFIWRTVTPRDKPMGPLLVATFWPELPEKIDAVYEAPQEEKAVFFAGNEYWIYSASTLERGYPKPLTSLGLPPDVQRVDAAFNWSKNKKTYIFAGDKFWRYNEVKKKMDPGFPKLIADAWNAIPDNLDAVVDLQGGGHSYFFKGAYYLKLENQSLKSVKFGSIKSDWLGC
Kind of assay: In vitro MMP inhibition analysis (fluorogenic peptide substrate), MMP-2. The note with it: human recombinant enzyme; 4 μM substrate (A); apparent Ki without substrate correction. As for the experimental part:
as §1, §2
The MMP-2 proenzyme was purified by gelatin Sepharose chromatography from MMP-2- transfected p2AHT2 cells provided by Dr. Gregory Goldberg of Washington University (St. Louis, Mo.).
as §3, §4, §5, §6, §7, §8, §9

Another assay concerns the target T3, Human recombinant MMP-1 (Homo sapiens, UniProt P03956).
T3 construct: made in house; host or cells: MMP-1-transfected HT-1080 cells (spent media)
T3 sequence (P03956 100-469): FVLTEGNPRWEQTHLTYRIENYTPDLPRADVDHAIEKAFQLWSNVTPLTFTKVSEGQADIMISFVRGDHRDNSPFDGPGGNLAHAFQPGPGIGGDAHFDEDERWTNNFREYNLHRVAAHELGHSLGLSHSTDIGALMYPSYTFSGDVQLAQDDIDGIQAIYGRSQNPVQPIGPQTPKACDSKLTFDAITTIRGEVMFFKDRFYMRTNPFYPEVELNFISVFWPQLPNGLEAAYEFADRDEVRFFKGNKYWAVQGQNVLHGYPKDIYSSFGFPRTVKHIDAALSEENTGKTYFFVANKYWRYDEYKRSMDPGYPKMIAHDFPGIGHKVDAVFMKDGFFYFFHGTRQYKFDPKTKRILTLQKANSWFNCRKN
Kind of assay: In vitro MMP inhibition analysis (fluorogenic peptide substrate), MMP-1. Particulars: human recombinant enzyme; 4 μM substrate (A); apparent Ki without substrate correction. The protocol:
as §1, §2
The MMP-1 proenzyme was purified from the spent media of MMP-1-transfected HT-1080 cells provided by Dr. Harold Welgus of Washington University (St. Louis, Mo.). The protein was purified on a zinc chelating column.
as §3, §4, §5, §6, §7, §8, §9

For `O=C(NO)C1(S(=O)(=O)c2ccc(-c3ccc(OC(F)(F)C(F)F)cc3)nc2)CCOCC1` [Example 47], the Ki is 2130 nM on Human recombinant MMP-14, 0.274 nM on Human recombinant MMP-2 and 1490 nM at Human recombinant MMP-1.
Take `O=C(NO)C1(S(=O)(=O)c2ccc(-c3ccc(OC(F)(F)C(F)F)cc3)nc2)CCOCC1` [Example 48]: the Ki on Human recombinant MMP-14 came out at 1850 nM; on Human recombinant MMP-2 it was 0.222 nM; on Human recombinant MMP-1, 1240 nM.
As for `O=C(NO)C1(S(=O)(=O)c2ccc(-c3ccc(OCC(F)(F)F)cc3)nc2)CCOCC1` [Example 46], the figures for the Ki at Human recombinant MMP-14, on Human recombinant MMP-2 and on Human recombinant MMP-1 were 852 nM, 0.367 nM and 4340 nM, respectively.
With `COCCN1CCC(C(=O)NO)(S(=O)(=O)c2ccc3nc(-c4ccc(OC(F)(F)F)cc4)sc3c2)CC1` [Example 63], the figures for the Ki on Human recombinant MMP-14, at Human recombinant MMP-2 and on Human recombinant MMP-1 were 4230 nM, 2.25 nM and 9160 nM, respectively.
For the compound `O=C(NO)C1(S(=O)(=O)c2ccc(-c3ccc(C(F)(F)F)cn3)s2)CCOCC1` [Example 50], the Ki on Human recombinant MMP-14 was 2820 nM; on Human recombinant MMP-2, 29.4 nM; on Human recombinant MMP-1 it was more than 10000 nM.
In the case of `CCCc1ccc(-c2nc3ccc(S(=O)(=O)C4(C(=O)NO)CCOCC4)cc3s2)cc1` [Example 53], the results for the Ki on Human recombinant MMP-14, at Human recombinant MMP-2 and on Human recombinant MMP-1 were more than 10000 nM, 3.52 nM and more than 10000 nM, respectively.
Regarding `CN(C(=O)c1ccc(-c2ccc(S(=O)(=O)C3(C(=O)NO)CCOCC3)cn2)cc1)c1ccccc1` [Example 78], the results for the Ki on Human recombinant MMP-14, on Human recombinant MMP-2 and on Human recombinant MMP-1 were more than 10000 nM, 895 nM and more than 10000 nM, respectively.
As to `O=C(NO)C1(S(=O)(=O)c2ccc3nc(-c4ccc(Cl)s4)sc3c2)CCOCC1` [Example 59], the Ki was 927 nM on Human recombinant MMP-14, 2.01 nM at Human recombinant MMP-2 and more than 1250 nM at Human recombinant MMP-1.
Regarding `O=C(Cc1ccc(-c2ccc(S(=O)(=O)C3(C(=O)NO)CCOCC3)cn2)cc1)N1CCCCC1` [Example 72], the Ki is more than 10000 nM at Human recombinant MMP-14, 305 nM on Human recombinant MMP-2 and more than 10000 nM on Human recombinant MMP-1.
Consider `O=C(NO)C1(S(=O)(=O)c2ccc(-c3ccc(OC(F)(F)F)cc3)nc2)CCOCC1` [Example 84], for which the values for the Ki on Human recombinant MMP-14, at Human recombinant MMP-2 and at Human recombinant MMP-1 were 671 nM, 0.819 nM and 4480 nM, respectively.
The matching figures for `O=C(NO)C1(S(=O)(=O)c2ccc3c(c2)sc2nc(-c4ccccc4)cn23)CCOCC1` [Example 83]: 3150 nM, 46.6 nM and more than 10000 nM.
The matching figures for `O=C(NO)C1(S(=O)(=O)c2ccc3nc(-n4cnc(-c5ccccc5)c4)sc3c2)CCOCC1` [Example 64]: 3830 nM, 151 nM and more than 10000 nM.
Consider `O=C(NO)C1(S(=O)(=O)c2ccc3nc(-c4ccc(F)c(F)c4)sc3c2)CCOCC1` [Example 60], for which the Ki was found to be 707 nM on Human recombinant MMP-14, 10.3 nM on Human recombinant MMP-2 and 2840 nM on Human recombinant MMP-1.
On to `O=C(NO)C1(S(=O)(=O)c2ccc(-c3ccc(CCC(F)(F)F)cc3)nc2)CCOCC1` [Example 68], for which the Ki at Human recombinant MMP-14 was 2450 nM; on Human recombinant MMP-2, 0.665 nM; on Human recombinant MMP-1, more than 10000 nM.
The matching figures for `CCCCNC(=O)Cc1ccc(-c2ccc(S(=O)(=O)C3(C(=O)NO)CCOCC3)cn2)cc1` [Example 73]: more than 10000 nM, 91.8 nM and more than 10000 nM.
`O=C(NO)C1(S(=O)(=O)c2ccc(-c3ccc(CCC(F)(F)C(F)(F)F)cc3)nc2)CCOCC1` [Example 69]: the figures for the Ki on Human recombinant MMP-14, at Human recombinant MMP-2 and on Human recombinant MMP-1 were 5070 nM, 0.766 nM and more than 10000 nM, respectively.
Take `O=C(NO)C1(S(=O)(=O)c2ccc3nc(-c4ccc(OC(F)(F)F)cc4)sc3c2)CCOCC1` [Example 51]: the Ki at Human recombinant MMP-14 turned out to be 3330 nM; on Human recombinant MMP-2, 2.07 nM; at Human recombinant MMP-1, 6530 nM.
`CC(C)CN(C)C(=O)Cc1ccc(-c2ccc(S(=O)(=O)C3(C(=O)NO)CCOCC3)cn2)cc1` [Example 71]: the values for the Ki on Human recombinant MMP-14, on Human recombinant MMP-2 and at Human recombinant MMP-1 were more than 10000 nM, 553 nM and more than 10000 nM, respectively.
`CCOc1ccc(-c2nc3ccc(S(=O)(=O)C4(C(=O)NO)CCOCC4)cc3s2)cc1` [Example 66]: the figures for the Ki on Human recombinant MMP-14, at Human recombinant MMP-2 and on Human recombinant MMP-1 were more than 312 nM, 2.21 nM and more than 312 nM, respectively.
Take `O=C(NO)C1(S(=O)(=O)c2ccc3nc(-c4ccc(F)cc4F)sc3c2)CCOCC1` [Example 61]: the Ki on Human recombinant MMP-14 was more than 10000 nM; on Human recombinant MMP-2 it was 14.8 nM; at Human recombinant MMP-1, more than 10000 nM.
In the case of `CCc1ccc(-c2nc3ccc(S(=O)(=O)C4(C(=O)NO)CCOCC4)cc3s2)cc1` [Example 58], the values for the Ki on Human recombinant MMP-14, at Human recombinant MMP-2 and on Human recombinant MMP-1 were 2500 nM, 1.51 nM and more than 10000 nM, respectively.
In the case of `CC(C)CN(C)C(=O)c1ccc(-c2ccc(S(=O)(=O)C3(C(=O)NO)CCOCC3)cn2)cc1` [Example 82], the Ki was more than 10000 nM at Human recombinant MMP-14, 668 nM at Human recombinant MMP-2 and more than 10000 nM at Human recombinant MMP-1.
On to `CCCCc1ccc(C(=O)C2CCN(c3nc4ccc(S(=O)(=O)C5(C(=O)NO)CCOCC5)cc4s3)CC2)s1` [Example 52], for which the results for the Ki at Human recombinant MMP-14, on Human recombinant MMP-2 and on Human recombinant MMP-1 were more than 10000 nM, 76.3 nM and more than 10000 nM, respectively.
As to `O=C(NO)C1(S(=O)(=O)c2ccc3nc(-c4ccsc4)sc3c2)CCOCC1` [Example 62], the Ki on Human recombinant MMP-14 came to 355 nM; at Human recombinant MMP-2, 4.83 nM; on Human recombinant MMP-1 it was 2020 nM.
Turning to `CN(C(=O)c1ccc(-c2ccc(S(=O)(=O)C3(C(=O)NO)CCOCC3)cn2)cc1)c1ccc(OC(F)(F)F)cc1` [Example 81], the Ki is more than 10000 nM at Human recombinant MMP-14, 2060 nM at Human recombinant MMP-2 and more than 10000 nM at Human recombinant MMP-1.
